Assay results published in PubChem BioAssay AID2060904 (Molecular Pharmacology Branch, DTP, NCI, 2025).

Test system: 349418-098-R-PDC complex spheroid viability
Assay: Anticancer human tumor 349418-098-R-PDC patient-derived lung adenocarcinoma cell line growth inhibition [RAS]
Conditions: for IC50: curve of first compound; for viability, T/C: stronger effect = lower value
How it was run: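 Tumour cells grown as complex spheroids with HUVEC endothelial cells and mesenchymal stem cells, treated with RAS pathway inhibitor combinations. Each agent spans half-log steps from near clinical Cmax, or 10 microM where Cmax is unknown.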
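Further: spheroids exposed to compound for seven days before viability readout.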

Structure (SMILES): C=CC(=O)N1CCN(c2nc(OCC3CCCN3C)nc3c(F)c(-c4nc(N)cc(C)c4C(F)(F)F)c(Cl)cc23)C(C)C1 (centres undefined) + CCn1c(-c2cccnc2C(C)OC)c2c3cc(ccc31)N1CCOC(CC(NC(=O)C(C(C)C)N(C)C(=O)C3(F)CCN(C(=O)C#CC(C)(C)N(C)C)CC3)C(=O)N3CCCC(N3)C(=O)OCC(C)(C)C2)C1
- IC50 (second compound 0.000949 µM): > 1000 nM
- IC50 (second compound 0.003 µM): > 1000 nM
- IC50 (second compound 0.00949 µM): > 1000 nM
- IC50 (second compound 0.03 µM): > 1000 nM
- IC50 (second compound 0.0949 µM): > 1000 nM
- IC50 (second compound 0.3 µM): > 1000 nM
- viability, T/C (second compound 0.000949 µM, first compound 0.00316 µM): 99%
- viability, T/C (second compound 0.000949 µM, first compound 0.01 µM): 94%
- viability, T/C (second compound 0.000949 µM, first compound 0.0316 µM): 111%
- viability, T/C (second compound 0.000949 µM, first compound 0.1 µM): 106%
- viability, T/C (second compound 0.000949 µM, first compound 0.316 µM): 116%
- viability, T/C (second compound 0.000949 µM, first compound 1 µM): 87.4%
- viability, T/C (second compound 0.003 µM, first compound 0.00316 µM): 112%
- viability, T/C (second compound 0.003 µM, first compound 0.01 µM): 97.6%
- viability, T/C (second compound 0.003 µM, first compound 0.0316 µM): 103%
- viability, T/C (second compound 0.003 µM, first compound 0.1 µM): 92.6%
- viability, T/C (second compound 0.003 µM, first compound 0.316 µM): 109%
- viability, T/C (second compound 0.003 µM, first compound 1 µM): 82.8%
- viability, T/C (second compound 0.00949 µM, first compound 0.00316 µM): 105%
- viability, T/C (second compound 0.00949 µM, first compound 0.01 µM): 98.3%
- viability, T/C (second compound 0.00949 µM, first compound 0.0316 µM): 101%
- viability, T/C (second compound 0.00949 µM, first compound 0.1 µM): 101%
- viability, T/C (second compound 0.00949 µM, first compound 0.316 µM): 105%
- viability, T/C (second compound 0.00949 µM, first compound 1 µM): 98.8%
- viability, T/C (second compound 0.03 µM, first compound 0.00316 µM): 99.3%
- viability, T/C (second compound 0.03 µM, first compound 0.01 µM): 97.4%
- viability, T/C (second compound 0.03 µM, first compound 0.0316 µM): 90.2%
- viability, T/C (second compound 0.03 µM, first compound 0.1 µM): 104%
- viability, T/C (second compound 0.03 µM, first compound 0.316 µM): 103%
- viability, T/C (second compound 0.03 µM, first compound 1 µM): 83.3%
- viability, T/C (second compound 0.0949 µM, first compound 0.00316 µM): 102%
- viability, T/C (second compound 0.0949 µM, first compound 0.01 µM): 89%
- viability, T/C (second compound 0.0949 µM, first compound 0.0316 µM): 85.5%
- viability, T/C (second compound 0.0949 µM, first compound 0.1 µM): 89.7%
- viability, T/C (second compound 0.0949 µM, first compound 0.316 µM): 100%
- viability, T/C (second compound 0.0949 µM, first compound 1 µM): 89%
- viability, T/C (second compound 0.3 µM, first compound 0.00316 µM): 85.4%
- viability, T/C (second compound 0.3 µM, first compound 0.01 µM): 95.2%
- viability, T/C (second compound 0.3 µM, first compound 0.0316 µM): 83.8%
- viability, T/C (second compound 0.3 µM, first compound 0.1 µM): 87.8%
- viability, T/C (second compound 0.3 µM, first compound 0.316 µM): 101%
- viability, T/C (second compound 0.3 µM, first compound 1 µM): 80%

Structure (SMILES): CC1(C)CCC(Nc2ncc(C(F)(F)F)c(-c3c[nH]c4c(P(C)(C)=O)c(C#N)ccc34)n2)CN1 (centres undefined) + CCn1c(-c2cccnc2C(C)OC)c2c3cc(ccc31)N1CCOC(CC(NC(=O)C(C(C)C)N(C)C(=O)C3(F)CCN(C(=O)C#CC(C)(C)N(C)C)CC3)C(=O)N3CCCC(N3)C(=O)OCC(C)(C)C2)C1
- IC50 (second compound 0.000949 µM): < 0.949 nM
- IC50 (second compound 0.003 µM): 1.31 nM
- IC50 (second compound 0.00949 µM): < 0.949 nM
- IC50 (second compound 0.03 µM): 1.25 nM
- IC50 (second compound 0.0949 µM): 1.02 nM
- IC50 (second compound 0.3 µM): 1.15 nM
- viability, T/C (second compound 0.000949 µM, first compound 0.000949 µM): 36.9%
- viability, T/C (second compound 0.000949 µM, first compound 0.003 µM): 19.5%
- viability, T/C (second compound 0.000949 µM, first compound 0.00949 µM): 10.7%
- viability, T/C (second compound 0.000949 µM, first compound 0.03 µM): 8.99%
- viability, T/C (second compound 0.000949 µM, first compound 0.0949 µM): 8.61%
- viability, T/C (second compound 0.000949 µM, first compound 0.3 µM): 7.56%
- viability, T/C (second compound 0.003 µM, first compound 0.000949 µM): 60.5%
- viability, T/C (second compound 0.003 µM, first compound 0.003 µM): 22.8%
- viability, T/C (second compound 0.003 µM, first compound 0.00949 µM): 14.4%
- viability, T/C (second compound 0.003 µM, first compound 0.03 µM): 9.79%
- viability, T/C (second compound 0.003 µM, first compound 0.0949 µM): 9.1%
- viability, T/C (second compound 0.003 µM, first compound 0.3 µM): 8.13%
- viability, T/C (second compound 0.00949 µM, first compound 0.000949 µM): 49.8%
- viability, T/C (second compound 0.00949 µM, first compound 0.003 µM): 19.5%
- viability, T/C (second compound 0.00949 µM, first compound 0.00949 µM): 12.2%
- viability, T/C (second compound 0.00949 µM, first compound 0.03 µM): 9.39%
- viability, T/C (second compound 0.00949 µM, first compound 0.0949 µM): 9.09%
- viability, T/C (second compound 0.00949 µM, first compound 0.3 µM): 6.88%
- viability, T/C (second compound 0.03 µM, first compound 0.000949 µM): 59.3%
- viability, T/C (second compound 0.03 µM, first compound 0.003 µM): 21.2%
- viability, T/C (second compound 0.03 µM, first compound 0.00949 µM): 12.3%
- viability, T/C (second compound 0.03 µM, first compound 0.03 µM): 8.37%
- viability, T/C (second compound 0.03 µM, first compound 0.0949 µM): 9.21%
- viability, T/C (second compound 0.03 µM, first compound 0.3 µM): 7.47%
- viability, T/C (second compound 0.0949 µM, first compound 0.000949 µM): 52.1%
- viability, T/C (second compound 0.0949 µM, first compound 0.003 µM): 22%
- viability, T/C (second compound 0.0949 µM, first compound 0.00949 µM): 9.91%
- viability, T/C (second compound 0.0949 µM, first compound 0.03 µM): 7.89%
- viability, T/C (second compound 0.0949 µM, first compound 0.0949 µM): 8.73%
- viability, T/C (second compound 0.0949 µM, first compound 0.3 µM): 7.62%
- viability, T/C (second compound 0.3 µM, first compound 0.000949 µM): 55.7%
- viability, T/C (second compound 0.3 µM, first compound 0.003 µM): 22.5%
- viability, T/C (second compound 0.3 µM, first compound 0.00949 µM): 9.85%
- viability, T/C (second compound 0.3 µM, first compound 0.03 µM): 9.41%
- viability, T/C (second compound 0.3 µM, first compound 0.0949 µM): 8.24%
- viability, T/C (second compound 0.3 µM, first compound 0.3 µM): 6.74%
